Source: ChEMBL document CHEMBL3351613, “Indolylarylsulfones carrying a heterocyclic tail as very potent and broad spectrum HIV-1 non-nucleoside reverse transcriptase inhibitors” (J Med Chem, 2014)

Assays:
[1] = target: Human immunodeficiency virus type 1 reverse transcriptase (Human immunodeficiency virus 1, UniProt Q72547)
Description: Inhibition of wild type HIV1 reverse transcriptase assessed as reduction in enzyme activity

[2] = target: Human immunodeficiency virus type 1 reverse transcriptase (Human immunodeficiency virus 1, UniProt Q72547, Y181I)
[3] = Cytotoxic activity against human MT4 cells by MTT assay; format: cell-based
[4] = target: Human immunodeficiency virus type 1 reverse transcriptase (Human immunodeficiency virus 1, UniProt Q72547, K103N)
Description: Inhibition of wild type HIV1 reverse transcriptase K103N mutant assessed as reduction in enzyme activity

[5] = test system: Human immunodeficiency virus 1; format: functional, organism-based; details: Human immunodeficiency virus 1, NL4-3, MT4
[6] = test system: Human immunodeficiency virus 1; format: functional, organism-based; details: Human immunodeficiency virus 1, NL4-3, MT4; remark: listed apart in the source
[7] = test system: Human immunodeficiency virus 1; format: functional, organism-based; details: Human immunodeficiency virus 1, NL4-3, MT4; remark: listed apart in the source
in vitro = details: human, MT4 cells
Description: Selectivity index, ratio of CC50 for human MT4 cells to EC50 for HIV1 NL4-3 infected in human MT4 cells

[8] = test system: Human immunodeficiency virus 1; test: Antiviral activity against HIV1 NL4-3 infected in human MT4 cells assessed as reduction in virus-induced cell death by MTT assay; format: functional, organism-based; details: Human immunodeficiency virus 1, NL4-3, MT4
[9] = test system: Human immunodeficiency virus 1; test: Antiviral activity against HIV1 NL4-3 expressing reverse transcriptase K103N mutant infected in human MT4 cells assessed as reduction in virus-induced cell death by MTT assay; format: functional, organism-based; details: Human immunodeficiency virus 1, NL4-3, MT4
[10] = test system: Human immunodeficiency virus 1; test: Antiviral activity against HIV1 NL4-3 expressing reverse transcriptase L100I mutant infected in human MT4 cells assessed as reduction in virus-induced cell death by MTT assay; format: functional, organism-based; details: Human immunodeficiency virus 1, NL4-3, MT4
[11] = test system: Human immunodeficiency virus 1; test: Antiviral activity against HIV1 3B infected in human CEM cells assessed as protection against virus-induced cytopathicity by giant cell formation assay; format: functional, organism-based; details: Human immunodeficiency virus 1, 3B, CCRF-CEM
[12] = test system: Human immunodeficiency virus 2; test: Antiviral activity against HIV2 ROD infected in human CEM cells assessed as protection against virus-induced cytopathicity by giant cell formation assay; format: functional, organism-based; details: Human immunodeficiency virus 2, ISOLATE ROD, CCRF-CEM
[13] = target: Human immunodeficiency virus type 1 reverse transcriptase (Human immunodeficiency virus 1, UniProt Q72547, L100I)
Description: Inhibition of wild type HIV1 reverse transcriptase L100I mutant assessed as reduction in enzyme activity

Row | SMILES | IC50 [1] | IC50 [2] | CC50 [3] | IC50 [4] | EC50 [5] | EC50 [6] | EC50 [7] | selectivity ratio (in vitro) | EC50 [8] | EC50 [9] | EC50 [10] | EC50 [11] | EC50 [12] | IC50 [13]
1 | Cc1cc(C)cc(S(=O)(=O)c2c(C(=O)NCc3ccncn3)[nH]c3ccc(Cl)cc23)c1 | 0.042 µM | 0.0042 µM | > 55 µM | 0.096 µM | 0.0022 µM | 0.132 µM | 0.0506 µM | > 250000 | 0.00022 µM |  |  |  |  | 
2 | Cc1cc(C)cc(S(=O)(=O)c2c(C(=O)NCc3ccco3)[nH]c3ccc(Cl)cc23)c1 | 0.003 µM | 0.234 µM | > 56.4 µM | 0.009 µM | 0.0008 µM | 0.971 µM | 0.045 µM | > 282000 | 0.0002 µM |  |  |  |  | 
3 | Cc1cc(C)cc(S(=O)(=O)c2c(C(=O)Nc3ccncc3)[nH]c3ccc(Cl)cc23)c1 |  |  | 20.6 µM |  | 0.016 µM | > 20.6 µM | 1.27 µM | 89600 | 0.00023 µM |  |  |  |  | 
4 | Cc1cc(C)cc(S(=O)(=O)c2c(C(=O)NCCc3ccccc3)[nH]c3ccc(Cl)cc23)c1 |  | > 20 µM | 37.9 µM |  | 0.107 µM | > 53.5 µM | > 36.4 µM | 18000 | 0.0021 µM | 0.021 µM |  |  |  | 
5 | Cc1cc(C)cc(S(=O)(=O)c2c(C(=O)NCCc3cccs3)[nH]c3ccc(Cl)cc23)c1 | 0.07 µM | > 20 µM | > 52.9 µM | 0.042 µM | 0.16 µM | > 52.9 µM |  | > 62900 | 0.00084 µM | 0.021 µM | 0.0054 µM | 0.0034 µM | > 50 µM | 0.001 µM
6 | Cc1cc(C)cc(S(=O)(=O)c2c(C(=O)NC(C)c3ccccc3)[nH]c3ccc(Cl)cc23)c1 (stereo not given) |  | 8.23 µM | > 53.5 µM |  |  |  |  | > 206000 |  |  | 0.026 µM |  | > 10 µM | 0.07 µM
7 | Cc1cc(C)cc(S(=O)(=O)c2c(C(=O)NC(C)c3ccccn3)[nH]c3ccc(Cl)cc23)c1 (racemic) | 0.064 µM | 11.1 µM | 54.6 µM | 0.1 µM | 0.23 µM | 6 µM |  | 91000 | 0.0006 µM | 0.034 µM | 0.045 µM | 0.0032 µM | > 10 µM | 0.03 µM
8 | Cc1cc(C)cc(S(=O)(=O)c2c(C(=O)NCc3cccs3)[nH]c3ccc(Cl)cc23)c1 | 0.03 µM | > 20 µM | > 54.5 µM | > 20 µM | 0.16 µM | > 54.5 µM |  | > 77800 | 0.0007 µM | 0.0091 µM | 0.0071 µM | 0.0052 µM | > 10 µM | 0.1 µM
9 | Cc1cc(C)cc(S(=O)(=O)c2c(C(=O)NCc3ccccc3)[nH]c3ccc(Cl)cc23)c1 |  | > 20 µM | 38 µM | > 20 µM |  | 1.92 µM | 0.09 µM | 173000 | 0.00022 µM | 0.0009 µM |  |  |  | 
10 | Cc1cc(C)cc(S(=O)(=O)c2c(C(=O)NNc3ccncc3)[nH]c3ccc(Cl)cc23)c1 | > 20 µM | > 20 µM | 30.3 µM | > 20 µM | > 20 µM | 55 µM |  | 727 | 0.0417 µM | 16 µM |  | 0.73 µM | ≥ 50 µM | 9.4 µM
11 | Cc1cc(C)cc(S(=O)(=O)c2c(C(=O)NCCn3c([N+](=O)[O-])cnc3C)[nH]c3ccc(Cl)cc23)c1 | 0.044 µM | 0.131 µM | 25.4 µM | 0.64 µM | 0.67 µM | > 48.5 µM |  | 40900 | 0.00062 µM | 0.14 µM | 0.14 µM | 0.0041 µM | > 10 µM | 0.16 µM
12 | Cc1cc(C)cc(S(=O)(=O)c2c(C(=O)Nc3cccc(N)c3)[nH]c3ccc(Cl)cc23)c1 | 0.019 µM | 0.226 µM | 23.8 µM | 0.31 µM | 0.066 µM | 2.14 µM | 0.947 µM | 108000 | 0.00022 µM | 0.0044 µM | 0.057 µM | 0.017 µM |  | 
13 | O=C(NCc1ccncc1)c1[nH]c2ccc(Cl)cc2c1S(=O)(=O)c1c(Cl)cccc1Cl |  |  | > 50.3 µM |  | 2.53 µM | > 50.5 µM | > 50.5 µM | > 62400 | 0.00081 µM | 5.25 µM |  |  |  | 
14 | Cc1cc(C)cc(S(=O)(=O)c2c(C(=O)NC(C)c3cccs3)[nH]c3ccc(Cl)cc23)c1 (stereo not given) | 0.027 µM |  | 32.3 µM | 0.079 µM | 0.068 µM | 2.64 µM | 0.347 µM | 162000 | 0.0002 µM | 0.0021 µM |  |  |  | 
15 | O=C1Nc2ccc(Cl)cc2[C@@](C#CC2CC2)(C(F)(F)F)O1 [EFAVIRENZ] |  |  | > 15.8 µM |  |  | > 0.317 µM |  |  |  |  | 0.022 µM |  |  | 
16 | Cc1cccc(C)c1S(=O)(=O)c1c(C(N)=O)[nH]c2ccc(Cl)cc12 |  |  | > 48.9 µM |  | 42.7 µM | > 48.9 µM | > 48.9 µM | > 1110 | 0.0441 µM | > 49.4 µM |  |  |  | 
17 | Cc1cccc(C)c1S(=O)(=O)c1c(C(=O)NCc2ccncc2)[nH]c2ccc(Cl)cc12 |  |  | > 55.1 µM |  | > 55.1 µM | > 55.1 µM | > 55.1 µM | > 167 | 0.33 µM | > 55.1 µM |  |  |  | 
18 | Cc1ccnc2c1NC(=O)c1cccnc1N2C1CC1 [NEVIRAPINE] |  |  | > 18.8 µM |  | > 3.76 µM | > 3.76 µM | > 3.76 µM |  | 0.112 µM | > 3.76 µM | 0.06 µM |  |  | 
19 | Cc1cc(C#N)cc(C)c1Oc1nc(Nc2ccc(C#N)cc2)nc(N)c1Br [ETRAVIRINE] |  |  | > 30.6 µM |  | 0.006 µM | 0.016 µM | 0.033 µM |  | 0.0037 µM | 0.016 µM |  |  |  | 
20 | NC(=O)c1[nH]c2ccc(Cl)cc2c1S(=O)(=O)c1c(Cl)cccc1Cl |  |  | 16 µM |  | 5.17 µM | 16 µM | > 16 µM | 64100 | 0.00025 µM | > 16 µM |  |  |  | 
21 | Cc1cc(C)cc(S(=O)(=O)c2c(C(=O)NN(C)c3ccccc3)[nH]c3ccc(Cl)cc23)c1 | 0.016 µM | > 20 µM | 44.1 µM | 0.234 µM | 1.47 µM | > 42.7 µM | > 42.7 µM | 21000 | 0.0021 µM | 0.0641 µM |  |  |  | 
